These results are taken from PubChem BioAssay (NCI).

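Tested at 5 concentrations; 48 h exposure; 96-well plates; endpoints linearly interpolated, else capped at highest concentration. GI50 is the concentration that inhibits growth by half. TGI marks complete inhibition of growth.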

Assay in all cases: DTP human tumour cell line panel, 48 h
Experiment [1] concerns HCC-2998 colon.
In experiment [2] the test system is HL-60(TB) leukemia.
Experiment [3] concerns LOX IMVI melanoma.
Experiment [4] relates to MDA-MB-231 breast.
In experiment [5] the test system is OVCAR-3 ovarian.
For experiment [6], the system named is OVCAR-4 ovarian.
In experiment [7] the test system is OVCAR-5 ovarian.
Experiment [8] deals with RXF 393 renal.
The test system of experiment [9] is SR leukemia.
Experiment [10] relates to U251 CNS.

As to `O=C(N/N=C\c1cc(Cl)ccc1O)N/N=C/c1cc(Cl)ccc1O`, the GI50 (as a rule, the concentration giving 50% growth inhibition) in experiment [1] is 3.34 µM; in experiment [2], 6.22 µM; in experiment [3] it was 2.14 µM; in experiment [4] it was 4.3 µM; in experiment [5] it was 2.12 µM; in experiment [6], 0.871 µM. For the same compound, the GI50 in [7] was greater than 100 µM; in experiment [8] it was greater than 100 µM; in [9], 78.5 µM; in experiment [10], 0.997 µM. In addition, the TGI in experiment [1], in experiment [2], in experiment [3], in [4], in experiment [5] and in [6] was greater than 100 µM in each case. In addition, the TGI in experiment [7], in experiment [8], in [9] and in experiment [10] was greater than 100 µM throughout.

In the case of `COc1ccccc1OCC(O)CO` (centres undefined), the GI50 in experiment [1], in experiment [2], in [3], in [4], in experiment [5] and in experiment [6] was greater than 100 µM throughout. For the same compound, the GI50 in experiment [7], in [8], in experiment [9] and in experiment [10] was greater than 100 µM throughout. Also, the TGI in experiment [1], in experiment [2], in [3], in [4], in [5] and in experiment [6] was greater than 100 µM throughout. Also, the TGI in [7], in experiment [8], in experiment [9] and in [10] was greater than 100 µM in each case.

For `O=c1c2c(=NCCCN3CCCC3)cc3c(=O)n(CCCN4CCCC4)c(=O)c4c(NCCCN5CCCC5)cc(c(O)n1CCCN1CCCC1)c2c4-3`, the GI50 in [1] was 6.84 µM; in [2], 11.2 µM; in experiment [3] it was 1.87 µM; in experiment [4] it was 4.89 µM; in [5], 2.88 µM; in experiment [6] it was 2.73 µM. Moreover, the GI50 in [7] is 1.64 µM; in [8], 2.83 µM; in [9], 6.88 µM; in experiment [10], 0.647 µM. Further, the TGI (in general, the concentration giving total growth inhibition) in experiment [1] is 23.1 µM; in experiment [2] it was 73.5 µM; in experiment [3], 4.19 µM; in experiment [4] it was 20.7 µM; in [5] it was 7.03 µM; in [7] it was 4.74 µM. Besides, the values for the TGI in experiment [8], in [9] and in experiment [10] were 8.23 µM, 81.9 µM and 10.4 µM, respectively.

For `O=C(O)C(O)C(O)C1[O][Sb][O]C1CO` (centres undefined), the GI50 is greater than 100 µM in [1]; greater than 53.1 µM in [2]; greater than 100 µM in experiment [3]; greater than 100 µM in [4]; greater than 100 µM in experiment [5]; greater than 100 µM in experiment [6]. The GI50 in [7], in experiment [8], in experiment [9] and in experiment [10] was greater than 100 µM throughout. Further, the TGI in experiment [1], in experiment [2], in experiment [3], in experiment [4], in experiment [5] and in [6] was greater than 100 µM each time. In addition, the TGI in [7], in experiment [8], in [9] and in [10] was greater than 100 µM throughout.

On to `Cn1cc(/C=C2\C(=O)Nc3cccnc32)c2ccccc21`, for which the GI50 in [1] was greater than 25 µM; in [2], greater than 22.5 µM; in experiment [3], 7.77 µM; in [4], 11.1 µM; in [5] it was greater than 22.5 µM; in experiment [6] it was 24.8 µM. Further, the GI50 was greater than 25 µM in [7], 10.8 µM in [8], greater than 25 µM in [9] and greater than 25 µM in experiment [10]. Further, the TGI in experiment [1], in experiment [2], in experiment [3], in [4], in experiment [5] and in experiment [6] was greater than 25 µM throughout. For the same compound, the TGI in [7], in experiment [8], in experiment [9] and in [10] was greater than 25 µM each time.

For the compound `NC(=NC1C2CC3CC(C2)CC1C3)Nc1ccc(I)cc1` (centres undefined), the GI50 in experiment [1] is 1.77 µM; in experiment [2] it was 6.43 µM; in [3], 1.78 µM; in experiment [4] it was 3.31 µM; in experiment [5], 3.97 µM; in experiment [6] it was 3.26 µM. Further, the GI50 in experiment [7] was 4.5 µM; in experiment [8], 3.1 µM; in experiment [9] it was 2.49 µM; in [10], 3.42 µM. In addition, the TGI was 3.61 µM in experiment [1]; 27.2 µM in experiment [2]; 3.51 µM in experiment [3]; 11 µM in experiment [4]; 15 µM in experiment [5]; 14 µM in [6]. Moreover, the TGI was 21.7 µM in experiment [7], 13.5 µM in experiment [8], 6.84 µM in experiment [9] and 12.6 µM in [10].

For `CCN(CC)c1ccc(/C=N\NC(=O)c2cccc(Nc3ccnc(C(F)(F)F)c3)c2)c(O)c1`, the GI50 is 0.278 µM in experiment [1]; 0.299 µM in experiment [2]; 0.133 µM in experiment [3]; 0.345 µM in experiment [4]; 0.271 µM in [5]; 0.118 µM in experiment [6]. Besides, the GI50 was 0.408 µM in [7], 0.216 µM in [8], 0.0967 µM in experiment [9] and 0.183 µM in experiment [10]. The TGI in [1] is 8.76 µM; in experiment [2] it was 1.05 µM; in [3] it was 2.22 µM; in experiment [4] it was greater than 43.1 µM; in experiment [5] it was greater than 100 µM; in experiment [6] it was greater than 100 µM. The TGI was greater than 39.3 µM in experiment [7], 1.9 µM in experiment [8], 0.736 µM in experiment [9] and greater than 37.5 µM in experiment [10].
